# Data reported in paper PMC11108815 (Heliyon, 2024).
# Marks after values point to notes of the source that are not given here.
# Legend:
# [1] = Pharmacokinetics in rat plasma; format: in vivo, Wistar rats; conditions: for AUC(0-inf): AUC0-∞; for CL/F: CLz/F; for MRT last: MRT0-t; for MRT inf: MRT0-∞
# [2] = Stability test of QC samples; format: physicochemical, rat
# [3] = Wistar, rat, plasma, po, 100 mg/kg, FS-C: normal (blank) rats, oral FS 100 mg kg^−1, n = 6
# [4] = Wistar, rat, plasma, po, 100 mg/kg, FT-C: normal (blank) rats, oral FT 100 mg kg^−1, n = 6
# [5] = Store at 4 °C for 24 h, high concentration QC sample in rat plasma
# [6] = Store at 4 °C for 24 h, low concentration QC sample in rat plasma
# [7] = Store at 4 °C for 24 h, medium concentration QC sample in rat plasma
# [8] = Store at room temperature for 12 h, high concentration QC sample in rat plasma
# [9] = Store at room temperature for 12 h, low concentration QC sample in rat plasma
# [10] = Store at room temperature for 12 h, medium concentration QC sample in rat plasma
# [11] = Store at −20 °C for 20 days, high concentration QC sample in rat plasma
# [12] = Store at −20 °C for 20 days, low concentration QC sample in rat plasma
# [13] = Store at −20 °C for 20 days, medium concentration QC sample in rat plasma
# [14] = Three freeze-thaw cycles, high concentration QC sample in rat plasma
# [15] = Three freeze-thaw cycles, low concentration QC sample in rat plasma
# [16] = Three freeze-thaw cycles, medium concentration QC sample in rat plasma
# [17] = FS-C: normal (blank) rats, oral FS 100 mg kg^−1, n = 6
# [18] = FS-M: microcirculation dysfunction model rats, oral FS 100 mg kg^−1, n = 6
# [19] = FT-C: normal (blank) rats, oral FT 100 mg kg^−1, n = 6
# [20] = FT-M: microcirculation dysfunction model rats, oral FT 100 mg kg^−1, n = 6
smiles,measurement,setting,value
O=C(O)/C=C/c1ccc(O)c(O)c1 [Caffeic acid],AUC(0-t),"[1]; Wistar, rat, plasma, po, 100 mg/kg, AUC0-t, FS-C: normal (blank) rats, oral FS 100 mg kg^−1, n = 6",37.2 ± 11.5 ng·h/mL
same,AUC(0-t),"[1]; Wistar, rat, plasma, po, 100 mg/kg, AUC0-t, FT-C: normal (blank) rats, oral FT 100 mg kg^−1, n = 6",31.7 ± 12 ng·h/mL
same,AUC(0-inf),[1]; [3],40.5 ± 18.6 ng·h/mL
same,AUC(0-inf),[1]; [4],44.4 ± 30.2 ng·h/mL
same,CL/F,[1]; [3],5.67 mL/min/kg
same,CL/F,[1]; [4],10.2 mL/min/kg
same,Cmax,"[1]; Wistar, rat, plasma, po, 100 mg/kg, Cmax, FS-C: normal (blank) rats, oral FS 100 mg kg^−1, n = 6",5.78 ± 0.23 ng/mL
same,Cmax,"[1]; Wistar, rat, plasma, po, 100 mg/kg, Cmax, FT-C: normal (blank) rats, oral FT 100 mg kg^−1, n = 6",4.65 ± 0.38 ng/mL
same,MRT last,[1]; [3],5.78 ± 2.57 h
same,MRT last,[1]; [4],5.61 ± 2.5 h
same,MRT inf,[1]; [3],7.21 ± 5.95 h
same,MRT inf,[1]; [4],10.7 ± 10.2 h
same,half-life,"[1]; Wistar, rat, plasma, po, 100 mg/kg, T1/2, FS-C: normal (blank) rats, oral FS 100 mg kg^−1, n = 6",3.62 ± 4.88 h
same,Tmax,"[1]; Wistar, rat, plasma, po, 100 mg/kg, Tmax, FS-C: normal (blank) rats, oral FS 100 mg kg^−1, n = 6",0.72 ± 0.31 h
same,Tmax,"[1]; Wistar, rat, plasma, po, 100 mg/kg, Tmax, FT-C: normal (blank) rats, oral FT 100 mg kg^−1, n = 6",0.61 ± 0.68 h
same,Tmax,"[1]; Wistar, rat, plasma, po, 100 mg/kg, Tmax, control group, after oral administration of FS or FT",> 0.47 h
same,Cmax in FT compared with FS,"[1]; normal group, p < 0.01, 0.05",significantly lower
same,Cmax after modeling compared with control group,[1]; oral administration of FS,decreased
same,AUC0-t after modeling compared with control group,[1]; oral administration of FT,increased
same,"Stability, Accuracy (RE, %)",[2]; [5],2.95%
same,"Stability, Accuracy (RE, %)",[2]; [6],6.27%
same,"Stability, Accuracy (RE, %)",[2]; [7],−2.07%
same,"Stability, Accuracy (RE, %)",[2]; [8],5.38%
same,"Stability, Accuracy (RE, %)",[2]; [9],−2.45%
same,"Stability, Accuracy (RE, %)",[2]; [10],2.52%
same,"Stability, Accuracy (RE, %)",[2]; [11],3.39%
same,"Stability, Accuracy (RE, %)",[2]; [12],−12.26%
same,"Stability, Accuracy (RE, %)",[2]; [13],0.41%
same,"Stability, Accuracy (RE, %)",[2]; [14],12.71%
same,"Stability, Accuracy (RE, %)",[2]; [15],3.68%
same,"Stability, Accuracy (RE, %)",[2]; [16],11.31%
O=C(O)[C@H](O)Cc1ccc(O)c(O)c1 [Danshensu],AUC0-∞,[1]; [17],641.77 ± 218.27 µg·h/L
same,AUC(0-t),[1]; [17],542.82 ± 141.09 ng·h/mL
same,CLz/F,[1]; [17],0.02 ± 0.01 L/h/kg
same,Cmax,[1]; [17],88.45 ± 17.93 ng/mL
same,MRT0-t,[1]; [17],6.53 ± 2.11 h
same,MRT0-∞,[1]; [17],11.93 ± 15.11 h
same,T1/2,[1]; [17],5.74 ± 11.19 h
same,Tmax,[1]; [17],0.67 ± 0.37 h
same,AUC0-∞,[1]; [18],947.33 ± 140.96 ^c μg·h·L^−1
same,AUC(0-t),[1]; [18],880.02 ± 141.73 ^d μg·h·L^−1
same,CLz/F,[1]; [18],0.01 ± 0.00 ^c L·h^−1·kg^−1
same,Cmax,[1]; [18],105.53 ± 11.68 ng/mL
same,MRT0-t,[1]; [18],7.53 ± 0.85 h
same,MRT0-∞,[1]; [18],9.53 ± 3.95 h
same,T1/2,[1]; [18],4.47 ± 3.92 h
same,Tmax,[1]; [18],0.74 ± 1.60 h
same,AUC0-∞,[1]; [19],588.72 ± 114.83 µg·h/L
same,AUC(0-t),[1]; [19],584.67 ± 122.39 ng·h/mL
same,CLz/F,[1]; [19],0.02 ± 0.00 L/h/kg
same,Cmax,[1]; [19],99.66 ± 15.57 ng/mL
same,MRT0-t,[1]; [19],7.54 ± 0.95 h
same,MRT0-∞,[1]; [19],7.81 ± 0.63 h
same,T1/2,[1]; [19],2.18 ± 2.22 h
same,Tmax,[1]; [19],0.47 ± 0.07 h
same,AUC0-∞,[1]; [20],767.88 ± 279.35 µg·h/L
same,AUC(0-t),[1]; [20],658.64 ± 172.02 ng·h/mL
same,CLz/F,[1]; [20],0.02 ± 0.01 L/h/kg
same,Cmax,[1]; [20],165.48 ± 7.83^f μg·L^−1
same,MRT0-t,[1]; [20],"5.33 ± 0.98 ^a^, ^e h"
same,MRT0-∞,[1]; [20],10.76 ± 12.84 h
same,T1/2,[1]; [20],6.40 ± 11.48 h
same,Tmax,[1]; [20],1.00 ± 0.00 ^f h
same,AUC0-t in model group compared with control group,"[1]; after modeling, p < 0.01, 0.05",significantly higher
same,AUC0-∞ in model group compared with control group,"[1]; after modeling, p < 0.01, 0.05",significantly higher
same,MRT0-t in the model group treated with FT,[1]; compared with the control group treated with FT and the model group treated with FS,decreased
same,shape of the drug-time curve,[1]; control group with oral FS,bimodal phenomenon
same,CLz/F after modeling compared with control group,[1]; oral administration of FS,decrease
same,Cmax after modeling compared with control group,[1]; oral administration of FT,significant increase
same,"Stability, Accuracy (RE, %)",[2]; [5],6.29%
same,"Stability, Accuracy (RE, %)",[2]; [6],−5.50%
same,"Stability, Accuracy (RE, %)",[2]; [7],5.99%
same,"Stability, Accuracy (RE, %)",[2]; [8],9.76%
same,"Stability, Accuracy (RE, %)",[2]; [9],−2.61%
same,"Stability, Accuracy (RE, %)",[2]; [10],1.50%
same,"Stability, Accuracy (RE, %)",[2]; [11],−8.83%
same,"Stability, Accuracy (RE, %)",[2]; [12],6.50%
same,"Stability, Accuracy (RE, %)",[2]; [13],0.73%
same,"Stability, Accuracy (RE, %)",[2]; [14],−3.63%
same,"Stability, Accuracy (RE, %)",[2]; [15],2.54%
same,"Stability, Accuracy (RE, %)",[2]; [16],−10.44%
